Data published in paper PMC4045324 (Biochemistry, 2014).

How the values were obtained:
MtDXR W203F = MtDXR W203F (Mycobacterium tuberculosis, UniProt P9WNS1, W203F)
MtDXR W203Y = MtDXR W203Y (Mycobacterium tuberculosis, UniProt P9WNS1, W203Y)

O=CN(O)CCCP(=O)(O)O [fosmidomycin]
binding enthalpy more exothermic than wild type by (MtDXR W203F): 2.8 kcal/mol | enthalpy share of total binding energy (enthalpy-driven binding) (MtDXR W203F): 75% | ΔG° (MtDXR W203F; pH 7.5): –10.10 ± 0.05 kcal/mol | ΔH° (MtDXR W203F; pH 7.5): –7.6 ± 0.7 kcal/mol | –TΔS° (MtDXR W203F; pH 7.5): –2.5 ± 0.7 kcal/mol | binding enthalpy more exothermic than wild type by (MtDXR W203Y): 5.4 kcal/mol | enthalpy share of total binding energy (enthalpy-driven binding) (MtDXR W203Y): 91% | ΔG° (MtDXR W203Y; pH 7.5): –11.26 ± 0.19 kcal/mol | ΔH° (MtDXR W203Y; pH 7.5): –10.2 ± 0.3 kcal/mol | –TΔS° (MtDXR W203Y; pH 7.5): –1.0 ± 0.4 kcal/mol
